Series [1] has as its system human embryonic stem cell derived neural stem cells (NSCs). Nature of the series: Neural stem cell proliferation assay (neurogenesis assay, ATP levels by CellTiterGlo). The conditions noted are these: 96 h, compound concentration at which 150% activity of control (100%) is reached, ATP levels after 4 days incubation, dose response 8 μM to 8 nM. The class given is cell-based. The procedure: Neural Stem Cell Proliferation Assay
Neurogenic properties of small molecules are determined based on the proliferation of human embryonic stem cell derived neural stem cells (NSCs) which were derived via a dual smad inhibition as previously described (Chambers, S. M., et al., Highly efficient neural conversion of human ES and iPS cells by dual inhibition of SMAD signaling, Nature biotechnology, 2009. 27(3): p. 275-80.)
Compounds respond is measured by the increase in cells based on ATP levels (Promega:CellTiterGlo®) after an incubation period of 4 days.
NSCs are thawed and expanded over 3 passages. On the 14th day, NSCs are seeded in Polyornithin/Laminin coated 384 well plates at a cell density of 21′000 cells/cm^2 in a media volume of 38 μl.
4 hours after cell seeding, compound solutions are added at a volume of 2 μl. Stock solutions of the compounds (water, 5% DMSO) are diluted to obtain a dose response (11 points, dilution factor is 2), ranging from 8 μM to 8 nM. Controls are run to consistently determine the neurogenic properties of the cells: • Negative (neutral) control is cell culture Media (final DMSO concentration: 0.25%). Positive controls are: • 1. cell culture Media+100 ng/ml FGF2 (final DMSO concentration: 0.1%) • 2. cell culture Media+20 ng/ml EGF (final DMSO concentration: 0.1%) • 3. cell culture Media+100 ng/ml Wnt3a (final DMSO concentration: 0.1%)
After 4 days incubation at 37° C., 5% CO2, the amount of ATP per well is quantified. The ATP concentration is proportional to the cell number. ATP is quantified by using the Promega CellTiterGlo® kit. The CellTiterGlo® reagents contain a cell lysis buffer, a thermo stable luciferase (UltraGlo™ recombinant luciferase), magnesium and luciferin. Luciferin reacts with ATP producing oxyluciferin, AMP and light. The luminescence signal is proportional to the ATP content.
The value of negative (neutral) control is determined for each assay plate by taking the average of 16 negative control wells. The neurogenic compound response is calculated for each compound as (compound/Negative Control)* 100.
The values of EC150 from the dose response curve are determined for each test compound. The EC150 is the compound concentration at which 150% activity of control (100%) is reached.

This is an account of results in patent publication US9440962B2, “Benzisoxazoles” (Hoffmann-La Roche Inc., priority 2012, dated 2016).

In turn, `Cc1ccc(-n2nccc2-c2ccc3noc(-c4ccc(F)cc4)c3c2)cc1` [Example 14, 3-(4-Fluoro-phenyl)-5-(2-p-tolyl-2H-pyrazol-3-yl)-benzo[c]isoxazole] registered a melting point of 173 °C. The molecule also gave an EC (150% of control) in series [1] of 0.091 µM.

`Cc1ccc(-n2nccc2-c2ccc3noc(-c4cccc(F)c4)c3c2)cc1` [Example 15, 3-(3-Fluoro-phenyl)-5-(2-p-tolyl-2H-pyrazol-3-yl)-benzo[c]isoxazole] came in with a melting point of 207 °C. The EC (150% of control) in series [1] amounted to 0.14 µM.

For the molecule `Cc1ccc(-c2onc3ccc(-c4ccnn4-c4ccc(C)cc4)cc23)cc1` [Example 16, 3-p-Tolyl-5-(2-p-tolyl-2H-pyrazol-3-yl)-benzo[c]isoxazole], the melting point amounted to 190 °C. The same molecule had an EC (150% of control) in series [1] of 0.055 µM.

As to `Cc1ccc(-n2nccc2-c2ccc3noc(-c4ccc(C(F)(F)F)cc4)c3c2)cc1` [Example 17, 5-(2-p-Tolyl-2H-pyrazol-3-yl)-3-(4-trifluoromethyl-phenyl)-benzo[c]isoxazole], the melting point was determined as 173 °C. For the same molecule, the EC (150% of control) in series [1] amounted to 1.13 µM.

In the case of `Cc1ccc(-n2nccc2-c2ccc3noc(-c4ccc(Cl)cc4)c3c2)cc1` [Example 18, 3-(4-Chloro-phenyl)-5-(2-p-tolyl-2H-pyrazol-3-yl)-benzo[c]isoxazole], the melting point was 204 °C. In series [1], the EC (150% of control) amounted to 0.093 µM.

Molecule `COc1ccc(-c2onc3ccc(-c4ccnn4-c4ccc(C)cc4)cc23)cc1` [Example 19, 3-(4-Methoxy-phenyl)-5-(2-p-tolyl-2H-pyrazol-3-yl)-benzo[c]isoxazole] yielded a melting point of 165 °C. The molecule further displayed an EC (150% of control) in series [1] of 0.045 µM.

As for `COc1ccc(-n2nccc2-c2ccc3noc(-c4ccc(F)cc4)c3c2)cc1` [Example 20, 3-(4-Fluoro-phenyl)-5-[2-(4-methoxy-phenyl)-2H-pyrazol-3-yl]-benzo[c]isoxazole], the melting point came out at 179 °C. Besides, in series [1], the EC (150% of control) is 0.36 µM.

`COc1ccc(-n2nccc2-c2ccc3noc(-c4cccc(F)c4)c3c2)cc1` [Example 21, 3-(3-Fluoro-phenyl)-5-[2-(4-methoxy-phenyl)-2H-pyrazol-3-yl]-benzo[c]isoxazole] returned a melting point of 203 °C. The molecule further displayed an EC (150% of control) in series [1] of 0.51 µM.

Molecule `COc1ccc(-n2nccc2-c2ccc3noc(-c4ccc(C)cc4)c3c2)cc1` [Example 22, 5-[2-(4-Methoxy-phenyl)-2H-pyrazol-3-yl]-3-p-tolyl-benzo[c]isoxazole] yielded a melting point of 159 °C. This molecule had an EC (150% of control) in series [1] of 0.18 µM.

For `COc1ccc(-n2nccc2-c2ccc3noc(-c4ccc(Cl)cc4)c3c2)cc1` [Example 23, 3-(4-Chloro-phenyl)-5-[2-(4-methoxy-phenyl)-2H-pyrazol-3-yl]-benzo[c]isoxazole], the melting point was 177 °C. The molecule also displayed an EC (150% of control) in series [1] of 0.31 µM.

Regarding `COc1ccc(-c2onc3ccc(-c4ccnn4-c4ccc(OC)cc4)cc23)cc1` [Example 24, 3-(4-Methoxy-phenyl)-5-[2-(4-methoxy-phenyl)-2H-pyrazol-3-yl]-benzo[c]isoxazole], the melting point is 133 °C. The EC (150% of control) in series [1] amounted to 0.26 µM.

The molecule `Fc1ccc(-c2onc3ccc(-c4ccnn4-c4ccc(Cl)cc4)cc23)cc1` [Example 25, 5-[2-(4-Chloro-phenyl)-2H-pyrazol-3-yl]-3-(4-fluoro-phenyl)-benzo[c]isoxazole] showed a melting point of 154 °C. Further, the EC (150% of control) in series [1] amounted to 0.32 µM.

Take `Fc1cccc(-c2onc3ccc(-c4ccnn4-c4ccc(Cl)cc4)cc23)c1` [Example 26, 5-[2-(4-Chloro-phenyl)-2H-pyrazol-3-yl]-3-(3-fluoro-phenyl)-benzo[c]isoxazole]: the melting point was 184 °C. In series [1], this molecule yielded an EC (150% of control) of 1.3 µM.

`Clc1ccc(-c2onc3ccc(-c4ccnn4-c4ccc(Cl)cc4)cc23)cc1` [Example 27, 3-(4-Chloro-phenyl)-5-[2-(4-chloro-phenyl)-2H-pyrazol-3-yl]-benzo[c]isoxazole] returned a melting point of 222 °C. Further, in series [1], the EC (150% of control) worked out at 0.46 µM.

On to `Fc1ccc(-c2onc3ccc(-c4ccnn4-c4ccc(F)cc4F)cc23)cc1` [Example 28, 5-[2-(2,4-Difluoro-phenyl)-2H-pyrazol-3-yl]-3-(4-fluoro-phenyl)-benzo[c]isoxazole], for which the melting point was 149 °C. The EC (150% of control) in series [1] was 0.07 µM.

Molecule `Fc1cccc(-c2onc3ccc(-c4ccnn4-c4ccc(F)cc4F)cc23)c1` [Example 29, 5-[2-(2,4-Difluoro-phenyl)-2H-pyrazol-3-yl]-3-(3-fluoro-phenyl)-benzo[c]isoxazole] yielded a melting point of 165 °C. Further, the EC (150% of control) in series [1] was found to be 0.25 µM.

In the case of `Cc1ccc(-c2onc3ccc(-c4ccnn4-c4ccc(F)cc4F)cc23)cc1` [Example 30, 5-[2-(2,4-Difluoro-phenyl)-2H-pyrazol-3-yl]-3-p-tolyl-benzo[c]isoxazole], the melting point worked out at 147 °C. For the same molecule, in series [1], the EC (150% of control) was 0.04 µM.

For the molecule `Fc1ccc(-n2nccc2-c2ccc3noc(-c4ccc(C(F)(F)F)cc4)c3c2)c(F)c1` [Example 31, 5-[2-(2,4-Difluoro-phenyl)-2H-pyrazol-3-yl]-3-(4-trifluoromethyl-phenyl)-benzo[c]isoxazole], the melting point came to 159 °C. This molecule displayed an EC (150% of control) in series [1] of 0.96 µM.

The molecule `Fc1ccc(-n2nccc2-c2ccc3noc(-c4ccc(Cl)cc4)c3c2)c(F)c1` [Example 32, 3-(4-Chloro-phenyl)-5-[2-(2,4-difluoro-phenyl)-2H-pyrazol-3-yl]-benzo[c]isoxazole] displayed a melting point of 155 °C. Further, the EC (150% of control) in series [1] amounted to 0.073 µM.

`COc1ccc(-c2onc3ccc(-c4ccnn4-c4ccc(F)cc4F)cc23)cc1` [Example 33, 5-[2-(2,4-Difluoro-phenyl)-2H-pyrazol-3-yl]-3-(4-methoxy-phenyl)-benzo[c]isoxazole]: the melting point amounted to 165 °C. The molecule also registered an EC (150% of control) in series [1] of 0.068 µM.

The molecule `c1ccc(-c2onc3ccc(-c4ccnn4-c4ccccc4)cc23)cc1` [Example 34, 3-Phenyl-5-(2-phenyl-2H-pyrazol-3-yl)-benzo[c]isoxazole] registered a melting point of 163 °C. Further, in series [1], the EC (150% of control) was found to be 0.13 µM.

As for `Fc1ccc(-c2onc3ccc(-c4ccnn4-c4ccccn4)cc23)cc1` [Example 35, 3-(4-Fluoro-phenyl)-5-(2-pyridin-2-yl-2H-pyrazol-3-yl)-benzo[c]isoxazole], the melting point came to 175 °C. The EC (150% of control) in series [1] is 0.04 µM.

With `COc1ccc(-c2onc3ccc(-c4ccnn4-c4ccccc4F)cc23)cc1F` [Example 36, 3-(3-Fluoro-4-methoxy-phenyl)-5-[2-(2-fluoro-phenyl)-2H-pyrazol-3-yl]-benzo[c]isoxazole], the melting point is 168 °C. Besides, the EC (150% of control) in series [1] was determined as 0.16 µM.

The molecule `COc1ccc(-c2onc3ccc(-c4ccnn4-c4ccc(F)cc4)cc23)cc1F` [Example 37, 3-(3-Fluoro-4-methoxy-phenyl)-5-[2-(4-fluoro-phenyl)-2H-pyrazol-3-yl]-benzo[c]isoxazole] had a melting point of 162 °C. Also, the EC (150% of control) in series [1] amounted to 1.1 µM.

As for `Cc1ccc(-n2nccc2-c2ccc3noc(-c4ccc(F)c(F)c4)c3c2)cc1` [Example 38, 3-(3,4-Difluoro-phenyl)-5-(2-p-tolyl-2H-pyrazol-3-yl)-benzo[c]isoxazole], the melting point amounted to 198 °C. The EC (150% of control) in series [1] came out at 0.48 µM.

`COc1ccc(-c2onc3ccc(-c4ccnn4-c4ccc(C)cc4)cc23)cc1F` [Example 39, 3-(3-Fluoro-4-methoxy-phenyl)-5-(2-p-tolyl-2H-pyrazol-3-yl)-benzo[c]isoxazole] gave a melting point of 197 °C. The EC (150% of control) in series [1] was determined as 0.25 µM.

The molecule `COc1ccc(-c2onc3ccc(-c4ccnn4-c4ccc(F)cc4F)cc23)cc1F` [Example 40, 5-[2-(2,4-Difluoro-phenyl)-2H-pyrazol-3-yl]-3-(3-fluoro-4-methoxy-phenyl)-benzo[c]isoxazole] displayed a melting point of 183 °C. This molecule displayed an EC (150% of control) in series [1] of 0.23 µM.

`Fc1ccc(-c2onc3ccc(-c4ccnn4-c4ccccc4Cl)cc23)cc1` [Example 41, 5-[2-(2-Chloro-phenyl)-2H-pyrazol-3-yl]-3-(4-fluoro-phenyl)-benzo[c]isoxazole] yielded a melting point of 161 °C. Also, the EC (150% of control) in series [1] was found to be 0.22 µM.
